The results in this text go back to ChEMBL document CHEMBL6096724, “Sulfonium Moieties as Ammonium Bioisosteres: Novel Ligands for the Alpha7 Nicotinic Acetylcholine Receptor” (J Med Chem, 2025).

The subject of assay [1] is Mus musculus. As to the kind of experiment: Anti-allodynic effect in C57BL/6J mouse model of CFA-induced chronic inflammatory pain assessed as reduction in mechanical hypersensitivity at 3 mg/kg, ip measured after 1 hr. Type of assay: functional, organism-based.
The target of assay [2] is T1, Neuronal acetylcholine receptor subunit alpha-7 (Homo sapiens, UniProt P36544). In words: Antagonist activity at human alpha7 nAChR expressed in xenopus laevis oocytes assessed as inhibition of acetylcholine-induced response by two electrode voltage-clamp assay. The class given is cell-based, Oocyte.
Assay [3] concerns Mus musculus. As to the kind of experiment: Effect on von Frey responses in C57BL/6J mouse model of CFA-induced chronic inflammatory pain at 1 to 3 mg/kg, ip measured for 0.5 to 6 hrs. The class given is functional, organism-based. Conditions: dose 1-3 mg/kg, time 0.5-6 hrs.
Assay [4] addresses T1, Neuronal acetylcholine receptor subunit alpha-7. As to the kind of experiment: Antagonist activity at human alpha7 nAChR expressed in acetylcholine-treated xenopus laevis oocytes at 30 uM by two electrode voltage-clamp assay. The class given is cell-based. Conditions: Oocyte, filed as antagonist. A general note: Two-electrode voltage clamp holds a large cell at a set potential and records current.

Assay [5] concerns the target T2, Neuronal acetylcholine receptor subunit alpha-9 (Homo sapiens, UniProt Q9UGM1). In words: Agonist activity at human alpha9 nAChR expressed in xenopus laevis oocytes assessed as activation of acetylcholine-induced response by two electrode voltage-clamp assay. Type of assay: cell-based, Oocyte.
Assay [6] deals with T2, Neuronal acetylcholine receptor subunit alpha-9. As to the kind of experiment: Agonist activity at human alpha9 nAChR expressed in xenopus laevis oocytes assessed as activation of acetylcholine-induced response by two electrode voltage-clamp assay (reference value: 1). The class given is cell-based. Conditions: Oocyte, filed as agonist.
In assay [7] the test system is Mus musculus. As to the kind of experiment: Anti-inflammatory activity in C57BL/6J mouse model of CFA-induced chronic inflammatory pain assessed as reduction in paw edema at 1 to 3 mg/kg, ip measured for 0.5 to 6 hrs. The class given is functional, organism-based. As to conditions: dose 1-3 mg/kg, time 0.5-6 hrs.
For assay [8], the system named is Mus musculus. As to the kind of experiment: Anti-allodynic effect in C57BL/6J mouse model of CFA-induced chronic inflammatory pain assessed as reduction in mechanical hypersensitivity at 3 mg/kg, ip measured after 6 hrs. Type of assay: functional, organism-based.
Assay [9] concerns Mus musculus. As to the kind of experiment: Effect on locomotor activity in C57BL/6J mouse model of CFA-induced chronic inflammatory pain at 3 mg/kg, ip measured for 0.5 to 6 hrs. As to conditions: time 0.5-6 hrs. The class given is functional, organism-based.
Assay [10] addresses T2, Neuronal acetylcholine receptor subunit alpha-9. As to the kind of experiment: Antagonist activity at human alpha9 nAChR expressed in xenopus laevis oocytes assessed as inhibition of acetylcholine-induced response by two electrode voltage-clamp assay. Type of assay: cell-based, Oocyte.
Assay [11] shares this target. In words: Activation of human alpha9 nAChR expressed in xenopus laevis oocytes at 30 uM by two electrode voltage-clamp assay. As to conditions: Oocyte. Type of assay: cell-based.
The target is the same in assay [12]. As to the kind of experiment: Silent agonist activity at human alpha9 nAChR expressed in acetylcholine-treated xenopus laevis oocytes at 30 uM by two electrode voltage-clamp assay. The class given is cell-based. As to conditions: Oocyte, filed as agonist.
In assay [13] the target is T1, Neuronal acetylcholine receptor subunit alpha-7. In words: Silent agonist activity at human alpha7 nAChR expressed in acetylcholine-treated xenopus laevis oocytes at 30 uM in presence of PNU-120596 by two electrode voltage-clamp assay. The class given is cell-based. Conditions: Oocyte.
For assay [14] the target is unchanged. As to the kind of experiment: Desensitization of human alpha7 nAChR expressed in acetylcholine-treated xenopus laevis oocytes at 30 uM by two electrode voltage-clamp assay. Type of assay: cell-based. Conditions: Oocyte.
The target is the same in assay [15]. In words: Agonist activity at human alpha7 nAChR expressed in xenopus laevis oocytes assessed as activation of acetylcholine-induced response by two electrode voltage-clamp assay (reference value: 1). The class given is cell-based. Conditions: Oocyte, filed as agonist.
For assay [16] the target is unchanged. As to the kind of experiment: Agonist activity at human alpha7 nAChR expressed in xenopus laevis oocytes assessed as activation of acetylcholine-induced response by two electrode voltage-clamp assay. Type of assay: cell-based, Oocyte.
Assay [17] has the same target. In words: Desensitization of human alpha7 nAChR expressed in acetylcholine-treated xenopus laevis oocytes at 30 uM pretreated with acetylcholine followed by compound treatment and re-treatment of acetylcholine thrice by two electrode voltage-clamp assay. Type of assay: cell-based. Conditions: Oocyte.
For assay [18] the target is unchanged. As to the kind of experiment: Desensitization of human alpha7 nAChR expressed in acetylcholine-treated xenopus laevis oocytes at 30 uM pretreated with acetylcholine followed by compound treatment and re-treatment of acetylcholine by two electrode voltage-clamp assay. The class given is cell-based. Conditions: Oocyte.
The target is the same in assay [19]. As to the kind of experiment: Silent agonist activity at human alpha7 nAChR expressed in acetylcholine-treated xenopus laevis oocytes assessed as relative response at 30 uM by two electrode voltage-clamp assay. Type of assay: cell-based. Conditions: Oocyte, filed as agonist.
The subject of assay [20] is Mus musculus. In words: Anti-allodynic effect in C57BL/6J mouse model of CFA-induced chronic inflammatory pain assessed as reduction in mechanical hypersensitivity at 0.3 to 1 mg/kg, ip measured for 6 hrs. The class given is functional, organism-based. As to conditions: dose 0.3-1 mg/kg.
The test system of assay [21] is Mus musculus. As to the kind of experiment: Effect on von Frey responses in C57BL/6J mouse model of CFA-induced chronic inflammatory pain at 0.3 to 1 mg/kg, ip measured for 0.5 to 6 hrs. Conditions: dose 0.3-1 mg/kg, time 0.5-6 hrs. The class given is functional, organism-based.
Assay [22] has as its system Mus musculus. In words: Anti-allodynic effect in C57BL/6J mouse model of CFA-induced chronic inflammatory pain assessed as reduction in mechanical hypersensitivity at 0.3 mg/kg, ip measured after 1 hr. The class given is functional, organism-based.
The subject of assay [23] is Mus musculus. In words: Anti-allodynic effect in C57BL/6J mouse model of CFA-induced chronic inflammatory pain assessed as reduction in mechanical hypersensitivity at 1 mg/kg, ip measured for 1 hr relative to control. Type of assay: functional. Set-up: scale not given: the % may be the effect or the level left.
Assay [24] concerns Mus musculus. In words: Anti-nociceptive effect in CFA C57BL/6J mouse model with alpha7 nAChR knockout at 1 mg/kg, ip measured after 3 days. The class given is functional, organism-based. As to conditions: time 3.0 day.
Assay [25] relates to Mus musculus. As to the kind of experiment: Anti-inflammatory activity in C57BL/6J mouse model of CFA-induced chronic inflammatory pain assessed as reduction in paw edema at 1 mg/kg, ip measured for 0.5 to 6 hrs. The class given is functional, organism-based. As to conditions: time 0.5-6 hrs.
Assay [26] deals with T1, Neuronal acetylcholine receptor subunit alpha-7. As to the kind of experiment: Silent agonist activity at human alpha7 nAChR expressed in acetylcholine-treated xenopus laevis oocytes assessed as potentiated response at 30 uM in presence of PNU-120596 by two electrode voltage-clamp assay. The class given is cell-based. Conditions: Oocyte, filed as agonist.
In assay [27] the test system is Mus musculus. As to the kind of experiment: Effect on locomotor activity in C57BL/6J mouse model of CFA-induced chronic inflammatory pain at 1 mg/kg, ip measured for 0.5 to 6 hrs. Type of assay: functional, organism-based. Conditions: time 0.5-6 hrs.

Activity calls are given as the source filed them. The calls are words filed in the database; no cut-off is given here.

As a reminder, the IC50 is the concentration that inhibits the measured activity by half. By EC50 is commonly meant the concentration that produces a half-maximal response.

T2 sequence (Q9UGM1 whole entry): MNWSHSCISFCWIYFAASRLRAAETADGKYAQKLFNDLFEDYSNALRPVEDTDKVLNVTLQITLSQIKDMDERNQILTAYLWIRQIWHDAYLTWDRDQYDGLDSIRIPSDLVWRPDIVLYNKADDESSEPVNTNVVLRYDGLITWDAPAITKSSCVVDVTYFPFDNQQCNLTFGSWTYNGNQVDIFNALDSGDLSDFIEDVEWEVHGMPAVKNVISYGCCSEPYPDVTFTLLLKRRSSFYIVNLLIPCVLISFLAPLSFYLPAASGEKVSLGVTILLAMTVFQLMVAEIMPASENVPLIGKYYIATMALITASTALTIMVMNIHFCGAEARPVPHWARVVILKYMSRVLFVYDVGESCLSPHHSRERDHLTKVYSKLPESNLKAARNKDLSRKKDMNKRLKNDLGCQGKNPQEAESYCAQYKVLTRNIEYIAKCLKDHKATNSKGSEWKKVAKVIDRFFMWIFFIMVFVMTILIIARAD
T1 sequence (P36544 whole entry): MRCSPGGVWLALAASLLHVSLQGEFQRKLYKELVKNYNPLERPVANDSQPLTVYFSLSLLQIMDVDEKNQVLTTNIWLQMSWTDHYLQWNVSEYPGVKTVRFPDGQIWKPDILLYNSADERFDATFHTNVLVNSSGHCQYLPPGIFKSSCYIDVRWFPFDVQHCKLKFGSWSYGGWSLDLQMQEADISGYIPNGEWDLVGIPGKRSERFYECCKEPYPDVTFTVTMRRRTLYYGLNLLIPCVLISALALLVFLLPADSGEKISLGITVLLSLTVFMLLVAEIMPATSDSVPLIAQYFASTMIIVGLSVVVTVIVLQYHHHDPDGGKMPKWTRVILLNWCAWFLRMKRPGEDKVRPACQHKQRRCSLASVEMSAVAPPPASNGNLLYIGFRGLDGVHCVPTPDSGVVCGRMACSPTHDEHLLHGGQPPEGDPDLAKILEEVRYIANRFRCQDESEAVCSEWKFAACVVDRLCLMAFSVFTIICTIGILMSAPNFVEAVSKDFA

Regarding `CC[S+](CC)CCNC(=O)c1ccc(-c2cccc(C(F)(F)F)c2)o1`, the outcome in [1] and in [4] was Active. The concentration for half-maximal inhibition (IC50) in [2] is 2.82 µM. Besides, the Activity entry in [3] and in [9] was “No effect” throughout. The EC50 in assay [5] came out at 2.38 µM. For the same compound, the max activation in assay [6] is 0.18. The result in [7] and in [8] was inactive.

As for `CC[S+]1CCCN(C(=O)c2ccc(-c3cccc(C(F)(F)F)c3)o2)CC1` (stereo unspecified), the IC50 in assay [10] was 4.03 µM; in assay [2], 26.3 µM. In assay [4], the result was Active.

In the case of `O=C(c1ccc(-c2cccc(C(F)(F)F)c2)o1)N1CCN2CCC1CC2`, the result in assay [11] was inactive. In assay [12], the Activity result is on record as “Active; Silent Agonist Activity Observed”.

As to `C[S+]1CCCN(C(=O)c2ccc(-c3cccc(C(F)(F)F)c3)o2)CC1` (stereo unspecified), in assay [10], the IC50 is 7.9 µM. In [13] (filed as agonist), the Activity entry is given as “Active; Silent Agonist Activity Observed”.

Take `C[S+](C)CCNC(=O)c1ccc(-c2cccc(C(F)(F)F)c2)o1`: in [13], the result was inactive.

As to `C[S+]1CCN(C(=O)c2ccc(-c3cccc(C(F)(F)F)c3)o2)CC1`, in assay [14] (filed as agonist), the Activity result is given as “Active; Silent Agonist Activity Observed”. In addition, the max activation in assay [15] stood at 0.26. Also, the EC50 in assay [16] amounted to 2.4 µM. The outcome in assay [17] and in [13] was inactive.

Turning to `O=C(c1ccco1)N1CC[S+]2CCC1CC2`, the result in assay [4] was Active.

For the compound `O=C(c1ccc(-c2cccc(C(F)(F)F)c2)o1)N1CC[S+]2CCC1CC2`, the IC50 in assay [2] came out at 5.24 µM. Also, the outcome in [4] was Active.

As for `C1C[S+]2CCC(CC2)N1`, the outcome in [14], in assay [18] and in assay [13] was inactive. Further, the max activation in [15] stood at 0.98. Besides, the concentration giving a half-maximal response (EC50) in assay [16] was found to be 41 µM.

In the case of `CCSCCNC(=O)c1ccc(-c2cccc(C(F)(F)F)c2)o1`, the outcome in [13] was inactive.

Regarding `CSCCCNC(=O)c1ccc(-c2cccc(C(F)(F)F)c2)o1`, the outcome in [13] was inactive.

For the compound `O=C(c1ccc(-c2cccc(C(F)(F)F)c2)o1)N1CCSCC1`, the outcome in assay [13] was inactive.

As to `O=C(c1ccc(-c2cccc(C(F)(F)F)c2)o1)N1CCCSCC1`, the result in assay [13] was inactive.

Consider `CC[S+]1CCN(C(=O)c2ccc(-c3cccc(C(F)(F)F)c3)o2)CC1.O=S(=O)([O-])C(F)(F)F`, for which the Activity was 0.016 in [19]; “No effect” in assay [21]; 100% in assay [23]; 11.2 in assay [26]; “Active; Silent Agonist Activity Observed” in assay [13] (filed as agonist); “No effect” in assay [27]. The result in assay [20] was inactive. For the same compound, the result in [22], in [24] and in assay [25] was Active.

As to `CSCCNC(=O)c1ccc(-c2cccc(C(F)(F)F)c2)o1`, in [13], the result was inactive.

With `C[S+](C)CCCNC(=O)c1ccc(-c2cccc(C(F)(F)F)c2)o1`, the Activity entry in [13] (filed as agonist) was “Active; Silent Agonist Activity Observed”.
